Where no end group is shown, it is not given here.

The source of these data is patent US20230151342A1, “ZINC FINGER DEGRADATION DOMAINS” (THE BROAD INSTITUTE, INC, priority 2020, published 2023).

One series concerns K562-CD19 cells. Kind of series: Jurkat CAR functional assay: CD69 expression after co-culture with K562-CD19 cells. It is filed as cell-based. An excerpt:
FIG. 12A-12D—ON-switch split CARs only function in the presence of lenalidomide. (FIG. 12A) Schematic of split CAR constructs. Each split CAR is composed of the indicated antigen-binding part A and the ITAM-containing part B. The lenalidomide-induced dimerization module is encoded by zinc fingers from IKZF3 or the engineered 913 zinc finger and a fragment of CRBN (CRBNΔ3). The intracellular domains of each split CAR part A is protected from CRL4^CRBN ubiquitination by K>R “K0” substitutions. The control second generation CAR FMC63-CD28-CD3z was also used. sCAR, split CAR. […] (FIG. 12C) Primary T cells were infected with lentiviruses encoding parts A and B of split CAR 913. Untransduced cells and cells expressing components A only, B only, and both A+B were purified by FACS. Cytotoxic activity of each sorted cell population was measured after overnight co-culture with NALM6 target cells and lenalidomide or vehicle control at the indicated effector:target ratios. The maximum plasma concentration for once daily 25 mg lenalidomide in multiple myeloma patients is indicated. (FIG. 12D) Scatterplots showing the production of cytokines after co-culture (1:1 CAR T:NALM6 ratio) in the presence of 1000 nM lenalidomide versus vehicle control. Experiments were performed in triplicate and error bars indicate standard deviation.
FIG. 24 Validation of lenalidomide-OFF-switch control of CAR T cell activation, as assessed by expression of the early activation marker CD69, in Jurkat T cells expressing various super-degron tagged chimeric antigen receptors. Regulation of CAR T cell activation with the indicated super-degrons, in comparison to the previously described degron d913. […]
Thalidomide analogs control degradable CAR T cell activation and effector functions in vitro and in vivo. […] Then cytokine production was analyzed in response to antigen stimulation.

In series [1] the test system is NALM6 target cells. Kind of series: Cellular cytotoxicity assay of primary human CAR-T cells. It is filed as cell-based. An excerpt:
(§1) To evaluate whether effector functions of primary T cells could be gated by lenalidomide, primary sCAR 913 T cells were generated. As the two split CAR components are delivered by separate lentivectors, this gave the ability to use FACS to purify cells expressing neither, one, or both components.
(§2) Thalidomide analogs control degradable CAR T cell activation and effector functions in vitro and in vivo. To test whether degradable CAR T cell activation could be controlled with lenalidomide, 19BBz, 19BBz-dIKZF3, 19BBz-d91.3, and 19BBz-d91.3* Jurkat CAR T cell lines were co-cultured with K562 cells engineered to express the target antigen CD19 (K562-CD19) and 11 lenalidomide concentrations or vehicle control. […] To evaluate whether effector functions of degradable CAR T cells could be controlled with lenalidomide, primary human CAR T cells were generated and cytotoxicity assays performed comparing the conventional 19BBz CAR to the degradable 19BBz-d91.3 CAR in vitro. […] Then cytokine production was analyzed in response to antigen stimulation.
(§3) Primary human CAR-T effector cells were co-cultured with NALM6 target cells engineered to express click beetle green luciferase at the indicated ratios for 16 hours. Luciferase activity was measured with a Synergy Neo2 luminescence microplate reader (Biotek). Cell culture supernatant from these experiments was analyzed for soluble cytokines (Luminex).

In series [2] the test system is NALM6 target cells. Kind of series: Cytokine production in CAR T:NALM6 co-culture supernatant (Luminex). It is filed as cell-based.
From the text: as §1, §2, §3

The test system of series [3] is JeKo-1 mantle cell lymphoma cells. Kind of series: In vivo tumor control model, mantle cell lymphoma xenograft. The conditions noted are these: NSG mice engrafted with JeKo-1 cells; no drug. How it is done:
(§4) FIG. 14A-14I—OFF-switch degradable CARs can be transiently depleted with pomalidomide and enforce tumor control in vivo. (FIG. 14A) Schematic of luciferase-tagged CAR constructs. […] (FIG. 14C) Summary of BLI 24 hours before, 6 hours after, and 24 hours after pomalidomide. Comparing the d91.3 and d91.3* CARs across each timepoint using two-tailed t-tests yielded p-values of 0.35, 0.003, and 0.14, respectively. (FIG. 14D) BLI representing CAR abundance over time. (FIG. 14E) Experimental design for in vivo tumor control model: NSG mice were injected intravenously with 1e6 GFP+/luciferase+ JeKo-1 tumor cells. At day 0, mice were randomly assigned on the basis of tumor burden to receive 1e6 control T cells (UTD), 19BBz, or 19BBz-d91.3. (FIG. 14F) Average luminescence of whole mice in the 3 groups over time. […] The percentage of JeKo-1 cells (FIG. 14H) and human T cell (FIG. 14I) among mononuclear cells in the bone marrow or spleen at day 35.
Subtle sequence changes to chimeric antigen receptors have been associated with intended and unintended consequences for CAR T cell efficacy and toxicity in clinical trials as well as pre-clinical models (23, 33, 34). Therefore, we determined whether addition of the zinc finger super-degron tag impacts CAR T cell activity in a mantle cell lymphoma xenograft model. We engrafted NSG mice with CD19+ luciferase+ JeKo-1 mantle cell lymphoma cells. […]

For series [4], the system named is CAR protein abundance in CAR-Jurkat cells. Kind of series: Jurkat CAR protein degradation (flow cytometry anti-Myc tag, western blot).
Procedure: CAR-Jurkat cells were treated with lenalidomide or vehicle control and then (FIG. 13B) analyzed by western blot for the specified targets or (FIG. 13C) analyzed by flow cytometry to quantify the CAR protein abundance normalized to vehicle control (anti-Myc tag). (FIG. 13D) CAR-Jurkat cells were co-cultured with K562-CD19 cells and lenalidomide or vehicle control and then analyzed by flow cytometry for the percentage of CD69+ cells. (FIG. 13E) The concentration of IL2 in supernatants from FIG. 13D was measured by ELISA. […] All experiments were performed in triplicate. Error bars indicate standard deviation.
Next, the kinetics of CAR depletion was examined after the addition of lenalidomide. […] We also examined the dynamics of CAR re-synthesis after washout of lenalidomide.
Normalized CAR expression was calculated via subtraction of the MFI of unstained cells and normalization to the signal intensity of vehicle control-treated cells. […] Luciferase-tagged CAR luminescence was measured with an EnVision plate reader (PerkinElmer).
For a further series, the system named is 2FKBP (N+L) Cas9. Kind of series: dTAG-induced degradation of FKBP-Cas9 (eGFP disruption, western blotting, degradation kinetics). It is filed as cell-based. The conditions noted are these: multiple assays. How it is done:
Degraders targeting variant Cas9 proteins is explored in the following example. SpCas9 variants were prepared and transfected into several cell lines.
Control of CRIPSR-Cas degradation can control editing outcomes.
For orientation: A western blot detects proteins with antibodies after separation by electrophoresis.

The conditions of series [5]: 25 mg per day dosing; multiple myeloma patients; cited from earlier work.
Series [6] relates to NALM6 cells engrafted in NSG mice. Kind of series: In vivo CAR T cell cytokine release model. The conditions noted are these: day 5. From the text:
To evaluate whether degradable CAR T cell cytokine release could be controlled in vivo, a high-level tumor engraftment model was used to provoke CAR T cell cytokine release. NALM6 cells were engrafted in non-obese diabetic scid gamma (NSG) mice one week before injection of conventional 19BBz CAR T cells, degradable 19BBz-d91.3 CAR T cells, or untransduced control T cells. On days 3-5 after T cell transfer, mice were either left untreated, treated daily, or treated twice daily with pomalidomide, which was used for in vivo experiments because it has a longer in vivo half-life than lenalidomide. On the afternoon of day 5, serum plasma concentrations were measured for a panel of human T cell cytokines (FIG. 14C). IFN-gamma levels were reduced four-fold (p=0.04) with daily and six-fold (p=0.01) with twice-daily pomalidomide treatment. […] Thus, pomalidomide can be used to limit cytokine release in vivo, the major driver of CAR T cell hyperactivation toxicities.

For series [7], the system named is Jurkat cells expressing 19BBz-FLuc-d91.3 in NSG mice. Kind of series: In vivo CAR depletion model (bioluminescent imaging of luciferase-tagged CAR). How it is done: as §4
As expected, after exposure to lenalidomide, we observed a dose-dependent decrease in luminescence from Jurkat cells expressing degradable but not control luciferase-tagged CARs (FIG. 14A). Applicants then transplanted NSG mice with the engineered T cells. After establishing detectable engraftment by luminescence imaging, we administered a single 10 mg/kg oral pomalidomide dose the following day, and measured luminescence. […]

With “19BBz-d91.3: degradable anti-CD19 CAR (4-1BB, CD3z) with d91.3 super-degron tag (FNVLMVHKRSHTGERPLQCEICGFTCRQKGNLLRHIKLHTGEKPFKCHLCNYACQRRDAL; not fully specified; cysteine pairing not given here)”, in the series with K562-CD19 cells (higher concentrations of lenalidomide, overnight co-culture with K562-CD19), the “inhibition of CD69 early activation marker expression” value was “more completely”. The “target cell killing (specific lysis)” value in the series on NALM6 target cells [1] (100 nM or 1000 nM lenalidomide, primary human CAR T cells, NALM6) is listed as “not detected above background”. The “secretion of cytokines reflective of T cell activation” value in the series with NALM6 target cells [2] (100 nM lenalidomide, 9:1 CAR T:NALM6) is listed as “reduced the secretion of all evaluated cytokines”. Moreover, the “survival, tumor burden (BLI, spleen, bone marrow), T cell persistence versus conventional 19BBz CAR T cells” value in [3] is recorded as “no significant differences”. For the same compound, in series [4] (Jurkat cells), the “Half-maximal depletion of the degradable CAR after addition of lenalidomide” value was roughly 20 min and the “Half-maximal recovery of expression after washout of lenalidomide” value was roughly 3.6 h. For the same compound, in series [4] (western blot, Jurkat cells), the “fold lower lenalidomide concentration for depletion than endogenous IKZF3” value is listed as “approximately 100 fold” and the “lenalidomide concentration for depletion as fraction of that required to deplete endogenous IKZF3” value is “approximately 1/100”.
As to `CC[C@H](C(=O)N1CCCC[C@H]1C(=O)O[C@H](CCc1ccc(OC)c(OC)c1)c1ccccc1OCC(=O)NCCCCCCCCNc1ccc2c(c1)C(=O)N(C1CCC(=O)NC1=O)C2=O)c1cc(OC)c(OC)c(OC)c1` (stereo partly shown) [dTAG], the “concentration sufficient for complete degradation of 2FKBP (N+L) Cas9” value in the series on 2FKBP (N+L) Cas9 was found to be 1 µM.
On to `Nc1cccc2c1CN(C1CCC(=O)NC1=O)C2=O` (stereo not shown) [lenalidomide, reference compound], for which the maximum plasma concentration in [5] is 1.9 µM. Besides, the “t½ of CAR depletion upon addition of lenalidomide” value in [4] (CAR-Jurkat cells, 95% CI 0.29-0.38) was found to be 0.33 h. Further, the “t½ of CAR re-expression following lenalidomide treatment and drug washout” value in series [4] (CAR-Jurkat cells, 95% CI 1.88-13.6) stood at 3.57 h.
Regarding `Nc1cccc2c1C(=O)N(C1CCC(=O)NC1=O)C2=O` (stereo not shown) [pomalidomide], the “reduction of serum IFN-gamma levels” value in [6] (daily 30 mg/kg pomalidomide oral gavage days 3-5, p=0.04) was “four-fold”; in series [6] (twice-daily 30 mg/kg pomalidomide oral gavage days 3-5, p=0.01) it was “six-fold”. The “reduction of serum IL-2 levels” value was “four-fold” in [6] (daily pomalidomide, p=0.05) and “not significantly reduced” in series [6] (twice-daily pomalidomide, p=0.06). Besides, the “luminescence of degradable CAR after 24 hours” value in series [7] (24 hours after single 10 mg/kg oral pomalidomide dose) is recorded as “recovered to levels similar to that of the control CAR”. Further, in series [7] (six hours after single 10 mg/kg oral pomalidomide dose, p=0.003), the “reduction of luminescence from the degradable CAR versus pre-treatment” value is given as 5 fold.
Take “sCAR-91.3: lenalidomide ON-switch split CAR with dimerization domain from hybrid d913 zinc finger and CRBNΔ3 (FNVLMVHKRSHTGERPLQCEICGFTCRQKGNLLRHIKLHTGEKPFKCHLCNYACQRRDAL; cysteine pairing not given here; also: fragment of split CAR, other chain or arm left off)”: the “fold lower EC50 than sCAR IKZF3” value in the series on K562-CD19 cells (lenalidomide, Jurkat T cells exposed to CD19+ target cells) is listed as 7 fold. Further, in the series with K562-CD19 cells (lenalidomide, split CAR-Jurkat cells co-cultured with K562-CD19, read-out: EC50 (percentage of CD69+ cells)), the EC50 (usually the concentration needed to bring the measured effect to its halfway point) was found to be 29.3 nM. Moreover, the “killing of NALM6 target cells” value with NALM6 target cells [1] (1000 nM lenalidomide, primary split CAR T cells sorted for components A, B) is reported as “restricted to T cells expressing both halves of sCAR 91.3 in the presence of 1000 nM lenalidomide”. For the same compound, in the series on NALM6 target cells [2] (split CAR primary T cells, NALM6, 1000 nM lenalidomide), the “IL2 production in co-culture” value was “required the complete sCAR 91.3 and lenalidomide”.
